Source: ChEMBL document CHEMBL1201862, “PubChem BioAssay data set” (2004)
Calls of active or inactive are those of the source.

Tests used:
[1] = target: Peroxisome proliferator-activated receptor gamma/Nuclear receptor coactivator 1 (Homo sapiens, UniProt P37231); format: functional;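 further: agonist potency as compounds enhance coactivator SRC-1 recruitment to PPARgamma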
[2] = target: Peroxisome proliferator-activated receptor gamma/Nuclear receptor coactivator 3 (Homo sapiens, UniProt P37231); format: functional;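 further: agonist potency for raising coactivator recruitment to the receptor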
[3] = target: Peroxisome proliferator-activated receptor gamma/Nuclear receptor coactivator 2 (Homo sapiens, UniProt P37231); format: functional;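 further: agonist potency for raising coactivator recruitment to the receptor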
[4] = target: DNA dC->dU-editing enzyme APOBEC-3G (Homo sapiens, UniProt Q9HC16); test: Dose Response confirmation of small molecule APOBEC3G DNA Deaminase Inhibitors via a fluorescence-based single-stranded DNA deaminase assay. [Related pubchem assays (depositor defined):AID493012, AID493028]; format: functional
Chain of DNA dC->dU-editing enzyme APOBEC-3G (Q9HC16 whole entry): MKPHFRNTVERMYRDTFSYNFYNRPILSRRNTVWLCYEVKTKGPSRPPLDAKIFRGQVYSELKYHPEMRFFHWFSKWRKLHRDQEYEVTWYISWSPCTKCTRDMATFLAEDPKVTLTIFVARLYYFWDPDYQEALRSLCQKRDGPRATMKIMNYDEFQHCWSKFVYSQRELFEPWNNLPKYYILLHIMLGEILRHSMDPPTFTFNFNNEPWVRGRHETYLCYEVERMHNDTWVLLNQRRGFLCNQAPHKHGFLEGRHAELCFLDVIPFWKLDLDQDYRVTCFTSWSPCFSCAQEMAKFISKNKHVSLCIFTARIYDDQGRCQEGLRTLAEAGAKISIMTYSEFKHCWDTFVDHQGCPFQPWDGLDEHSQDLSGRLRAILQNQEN

[5] = target: DNA dC->dU-editing enzyme APOBEC-3A (Homo sapiens, UniProt P31941); test: A3A deaminase inhibition for selectivity – biochemical, dose response (AID 504722); format: functional
Chain of DNA dC->dU-editing enzyme APOBEC-3A (P31941 whole entry): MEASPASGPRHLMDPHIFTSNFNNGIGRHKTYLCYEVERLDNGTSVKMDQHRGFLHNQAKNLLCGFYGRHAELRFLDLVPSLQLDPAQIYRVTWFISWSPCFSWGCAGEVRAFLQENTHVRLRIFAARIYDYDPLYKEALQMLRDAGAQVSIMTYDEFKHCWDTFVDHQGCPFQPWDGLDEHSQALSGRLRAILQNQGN

[6] = target: SUMO-activating enzyme (Homo sapiens, UniProt Q9UBT2); test: blockers of UBC9-mediated SUMO conjugation – biochemical, AlphaScreen, SUMOylation inhibitor project, confirmation (AID 2018); format: functional
Chain of SUMO-activating enzyme (Q9UBE0 whole entry): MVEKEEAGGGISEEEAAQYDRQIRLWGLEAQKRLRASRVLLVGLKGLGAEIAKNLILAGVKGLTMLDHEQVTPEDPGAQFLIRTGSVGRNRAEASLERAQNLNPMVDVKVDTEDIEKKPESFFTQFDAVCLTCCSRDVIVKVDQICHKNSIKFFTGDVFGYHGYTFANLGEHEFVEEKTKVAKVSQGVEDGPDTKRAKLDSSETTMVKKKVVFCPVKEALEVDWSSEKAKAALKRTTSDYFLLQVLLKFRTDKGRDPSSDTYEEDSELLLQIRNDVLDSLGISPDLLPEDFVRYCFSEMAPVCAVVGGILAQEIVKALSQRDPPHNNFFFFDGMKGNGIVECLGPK
Chain of SUMO-activating enzyme (Q9UBT2 whole entry): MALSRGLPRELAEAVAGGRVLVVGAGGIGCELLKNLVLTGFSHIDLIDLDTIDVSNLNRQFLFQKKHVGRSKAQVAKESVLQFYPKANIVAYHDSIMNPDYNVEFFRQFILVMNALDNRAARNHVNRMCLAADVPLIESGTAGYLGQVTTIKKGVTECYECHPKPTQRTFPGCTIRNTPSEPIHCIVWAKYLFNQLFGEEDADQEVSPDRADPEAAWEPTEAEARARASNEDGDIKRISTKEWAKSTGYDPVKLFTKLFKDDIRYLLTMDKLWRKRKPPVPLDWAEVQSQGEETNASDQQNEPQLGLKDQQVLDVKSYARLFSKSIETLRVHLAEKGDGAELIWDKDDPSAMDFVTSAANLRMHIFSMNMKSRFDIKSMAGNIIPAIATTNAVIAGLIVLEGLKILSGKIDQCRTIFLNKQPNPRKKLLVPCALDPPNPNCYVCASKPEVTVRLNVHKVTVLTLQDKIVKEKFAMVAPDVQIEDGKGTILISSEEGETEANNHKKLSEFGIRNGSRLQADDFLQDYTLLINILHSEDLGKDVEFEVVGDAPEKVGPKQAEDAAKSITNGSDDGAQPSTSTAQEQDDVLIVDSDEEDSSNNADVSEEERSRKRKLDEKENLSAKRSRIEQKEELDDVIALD

[7] = target: 5-hydroxytryptamine receptor 5A (Homo sapiens, UniProt P47898); test: Counterscreen for agonists of OPRM1-OPRD1 heterodimerization: luminescence-based cell-based high throughput dose response assay to identify agonists of 5-hydroxytryptamine (serotonin) 5A receptor (HTR5A). [Related pubchem assays (depositor defined):AID504326, AID504355, AID504692, AID504904, AID504905]; format: functional
Chain of 5-hydroxytryptamine receptor 5A (P47898 whole entry): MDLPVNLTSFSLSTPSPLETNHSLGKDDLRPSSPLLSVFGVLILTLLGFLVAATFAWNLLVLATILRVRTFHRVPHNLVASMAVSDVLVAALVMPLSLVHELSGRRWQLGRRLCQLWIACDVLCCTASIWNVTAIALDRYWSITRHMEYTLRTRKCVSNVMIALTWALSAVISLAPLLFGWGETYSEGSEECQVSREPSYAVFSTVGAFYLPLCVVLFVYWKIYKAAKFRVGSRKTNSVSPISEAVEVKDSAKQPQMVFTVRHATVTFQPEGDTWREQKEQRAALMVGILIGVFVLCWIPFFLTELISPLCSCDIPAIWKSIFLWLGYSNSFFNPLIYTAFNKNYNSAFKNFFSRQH

[8] = target: Delta-type opioid receptor (Homo sapiens, UniProt P41143); test: Counterscreen for agonists of heterodimerization of the mu 1 (OPRM1) and delta 1 (OPRD1) opioid receptors: Luminescence-based cell-based high throughput dose response assay to identify agonists of OPRD1 homodimerization. [Related pubchem assays (depositor defined):AID504326, AID504355, AID504692, AID504904, AID504905]; format: functional
Chain of Delta-type opioid receptor (P41143 whole entry): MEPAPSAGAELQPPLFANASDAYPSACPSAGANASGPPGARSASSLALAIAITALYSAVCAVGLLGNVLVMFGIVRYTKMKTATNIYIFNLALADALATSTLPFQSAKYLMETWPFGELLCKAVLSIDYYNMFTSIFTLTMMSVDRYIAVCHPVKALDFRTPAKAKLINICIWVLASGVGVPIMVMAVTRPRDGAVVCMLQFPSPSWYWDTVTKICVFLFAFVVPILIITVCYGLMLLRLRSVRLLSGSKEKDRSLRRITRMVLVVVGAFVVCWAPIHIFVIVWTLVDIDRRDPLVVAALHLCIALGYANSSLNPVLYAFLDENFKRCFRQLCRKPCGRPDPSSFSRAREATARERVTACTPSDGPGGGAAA

[9] = target: Mu-type opioid receptor (Homo sapiens, UniProt P35372); test: Counterscreen for agonists of heterodimerization of the mu 1 (OPRM1) and delta 1 (OPRD1) opioid receptors: Luminescence-based cell-based high throughput dose response assay to identify agonists of OPRM1 homodimerization.; format: functional;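 further: U2OS cells expressing OPRM1 and beta-arrestin as split beta-galactosidase partners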
Chain of Mu-type opioid receptor (P35372 whole entry): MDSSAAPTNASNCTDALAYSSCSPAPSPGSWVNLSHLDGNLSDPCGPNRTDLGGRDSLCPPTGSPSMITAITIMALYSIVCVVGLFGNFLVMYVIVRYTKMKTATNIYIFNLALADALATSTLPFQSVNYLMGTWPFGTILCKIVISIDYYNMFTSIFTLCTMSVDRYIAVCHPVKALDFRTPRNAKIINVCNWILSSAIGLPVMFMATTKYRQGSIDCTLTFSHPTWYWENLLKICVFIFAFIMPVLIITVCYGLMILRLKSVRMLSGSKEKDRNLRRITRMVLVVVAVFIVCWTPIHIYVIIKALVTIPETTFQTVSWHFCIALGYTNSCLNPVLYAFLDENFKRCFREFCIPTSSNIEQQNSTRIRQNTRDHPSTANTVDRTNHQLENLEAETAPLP

[10] = target: Cytochrome P450 3A4 (Homo sapiens, UniProt P08684);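 further: CYP3A4 tested as one member of a cytochrome P450 panel screen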
Chain of Cytochrome P450 3A4 (P08684 whole entry): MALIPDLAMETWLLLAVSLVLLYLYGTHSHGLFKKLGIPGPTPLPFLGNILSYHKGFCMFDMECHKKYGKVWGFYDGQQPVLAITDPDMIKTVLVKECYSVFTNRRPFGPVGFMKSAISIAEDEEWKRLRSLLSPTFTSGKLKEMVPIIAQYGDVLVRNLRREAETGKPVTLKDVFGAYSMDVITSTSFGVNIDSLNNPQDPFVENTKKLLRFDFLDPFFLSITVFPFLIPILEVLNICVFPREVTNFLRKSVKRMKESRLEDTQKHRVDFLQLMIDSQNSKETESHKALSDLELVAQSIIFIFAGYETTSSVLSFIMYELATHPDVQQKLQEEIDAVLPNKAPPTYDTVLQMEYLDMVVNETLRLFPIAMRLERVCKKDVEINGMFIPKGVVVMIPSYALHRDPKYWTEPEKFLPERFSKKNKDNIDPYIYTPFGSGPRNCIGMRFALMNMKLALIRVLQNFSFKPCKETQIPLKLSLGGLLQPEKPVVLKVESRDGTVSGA

[11] = target: T1, Mucolipin-3 (Homo sapiens, UniProt Q8TDD5); test: Dose response cell-based high-throughput screening assay for agonists of the transient receptor potential channel ML3 (TRPML3). [Related pubchem assays: 1526, 1424, 1448 ]; format: functional
T1 sequence (Q8TDD5 whole entry): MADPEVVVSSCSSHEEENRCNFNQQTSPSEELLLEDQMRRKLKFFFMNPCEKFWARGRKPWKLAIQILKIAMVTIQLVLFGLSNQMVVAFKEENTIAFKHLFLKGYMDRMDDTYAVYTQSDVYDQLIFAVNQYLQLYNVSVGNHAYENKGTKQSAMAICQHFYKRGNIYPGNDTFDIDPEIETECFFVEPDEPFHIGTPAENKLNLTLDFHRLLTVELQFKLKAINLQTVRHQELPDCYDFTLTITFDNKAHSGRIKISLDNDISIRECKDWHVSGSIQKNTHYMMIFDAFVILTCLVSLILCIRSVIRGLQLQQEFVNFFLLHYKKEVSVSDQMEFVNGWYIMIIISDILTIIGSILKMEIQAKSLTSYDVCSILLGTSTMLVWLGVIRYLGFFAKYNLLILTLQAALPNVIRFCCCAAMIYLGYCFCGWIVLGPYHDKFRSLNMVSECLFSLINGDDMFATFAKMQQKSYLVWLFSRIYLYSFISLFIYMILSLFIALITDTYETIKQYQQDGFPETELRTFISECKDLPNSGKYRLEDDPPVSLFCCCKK

[12] = target: Ion channel NompC (Danio rerio, UniProt Q7T1G6); test: Fluorescence counterscreen assay for TRPML3 agonists: dose response cell-based high-throughput screening assay to identify agonists of the transient receptor potential channel N1 (TRPN1). [Related pubchem assays: 1526, 1424, 1448 ]; format: functional
Chain of Ion channel NompC (Q7T1G6 whole entry): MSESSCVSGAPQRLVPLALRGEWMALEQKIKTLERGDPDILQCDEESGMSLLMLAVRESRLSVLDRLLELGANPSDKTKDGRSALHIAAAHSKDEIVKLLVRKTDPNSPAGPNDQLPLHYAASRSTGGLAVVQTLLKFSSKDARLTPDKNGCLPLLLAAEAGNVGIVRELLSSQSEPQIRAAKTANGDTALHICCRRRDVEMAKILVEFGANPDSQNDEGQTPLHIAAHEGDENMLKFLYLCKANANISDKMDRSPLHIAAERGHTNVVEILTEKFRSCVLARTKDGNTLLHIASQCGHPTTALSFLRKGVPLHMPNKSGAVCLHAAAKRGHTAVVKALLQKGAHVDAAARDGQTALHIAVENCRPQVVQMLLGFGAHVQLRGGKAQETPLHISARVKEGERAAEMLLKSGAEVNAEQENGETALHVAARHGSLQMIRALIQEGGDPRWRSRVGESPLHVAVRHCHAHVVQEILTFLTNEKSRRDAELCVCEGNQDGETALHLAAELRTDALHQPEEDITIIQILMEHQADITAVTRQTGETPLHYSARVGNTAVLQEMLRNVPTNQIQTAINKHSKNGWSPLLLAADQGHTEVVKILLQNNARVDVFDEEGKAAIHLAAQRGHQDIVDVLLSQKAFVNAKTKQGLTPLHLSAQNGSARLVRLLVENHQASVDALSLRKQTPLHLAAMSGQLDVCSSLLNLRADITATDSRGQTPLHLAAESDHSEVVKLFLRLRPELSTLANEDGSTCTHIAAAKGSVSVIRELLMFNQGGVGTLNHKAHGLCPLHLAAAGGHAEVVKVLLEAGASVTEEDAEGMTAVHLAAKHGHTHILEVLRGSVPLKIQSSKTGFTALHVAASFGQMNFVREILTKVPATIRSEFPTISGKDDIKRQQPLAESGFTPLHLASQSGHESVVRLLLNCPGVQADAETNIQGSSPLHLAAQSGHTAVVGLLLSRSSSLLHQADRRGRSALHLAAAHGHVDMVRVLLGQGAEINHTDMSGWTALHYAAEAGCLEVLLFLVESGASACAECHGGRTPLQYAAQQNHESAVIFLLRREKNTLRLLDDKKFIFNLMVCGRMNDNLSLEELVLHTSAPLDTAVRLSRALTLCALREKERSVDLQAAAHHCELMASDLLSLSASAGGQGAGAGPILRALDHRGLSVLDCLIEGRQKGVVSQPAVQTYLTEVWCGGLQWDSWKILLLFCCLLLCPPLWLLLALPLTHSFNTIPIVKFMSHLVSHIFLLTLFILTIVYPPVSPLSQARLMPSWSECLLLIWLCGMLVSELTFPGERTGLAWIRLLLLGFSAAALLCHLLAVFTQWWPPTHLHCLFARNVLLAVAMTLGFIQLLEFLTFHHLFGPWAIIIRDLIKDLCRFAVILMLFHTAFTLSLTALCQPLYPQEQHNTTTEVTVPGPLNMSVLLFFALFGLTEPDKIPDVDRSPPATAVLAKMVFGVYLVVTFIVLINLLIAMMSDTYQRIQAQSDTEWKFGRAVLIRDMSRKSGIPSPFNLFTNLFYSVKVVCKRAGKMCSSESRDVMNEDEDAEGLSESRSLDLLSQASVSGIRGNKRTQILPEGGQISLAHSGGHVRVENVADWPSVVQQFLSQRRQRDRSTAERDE

[13] = target: Cytochrome P450 2C9 (Homo sapiens, UniProt P11712)
[14] = NIH3T3 cell viability loss – ATP luminescence, mouse fibroblasts, counter-screen, dose response (AID 2010); format: functional, cell-based;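 further: cells exposed to compound for about 90 hours before reading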
[15] = Trypanosoma cruzi growth suppression in host cells – NIH3T3 host cells, beta-gal luminescence, confirmation (AID 2044); format: functional, cell-based;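 further: intracellular parasites grown in NIH/3T3 mouse fibroblasts as host cells; luminescent beta-galactosidase reporter signal from transgenic T. cruzi replicating inside host cells; inhibitors lower the luminescence signal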
[16] = test system: Streptococcus sp. 'group A'; test: Streptococcus pyogenes SK(-)GAS viability under kanamycin – luminescence, BacTiterGlo, confirmation, counter-screen for streptokinase expression inhibitor project, dose response (AID 1900); format: functional, organism-based
[17] = test system: HEK293; test: cells; format: functional, cell-based; details: Homo sapiens
[18] = test system: BJ; test: cells; format: functional, cell-based; details: Homo sapiens
[19] = DRD fibroblast viability loss – cell-based, non-viral oncogenic, luminescence, dose response (AID 1934); format: functional; details: Homo sapiens
[20] = test system: BJ; test: BJ-TERT-LT-ST fibroblast viability loss – cell-based, RAS-independent, luminescence, dose response (AID 1935); format: functional; details: Homo sapiens;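 further: BJ fibroblasts immortalized with TERT plus LT and ST oncogenes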
[21] = test system: BJ; test: BJ-TERT fibroblast viability loss – cell-based, RAS-independent, luminescence, dose response (AID 1933); format: functional; details: Homo sapiens
[22] = test system: Vero; test: cells; format: functional; details: Chlorocebus sabaeus
[23] = NIH-3T3 fibroblast cytotoxicity, dose response, cytotoxicity control, cell-based, fluorescence, Alamar Blue, secondary assay (AID 2327); format: functional;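 further: NIH-3T3 mouse fibroblasts cultured with fluconazole at 8 µg/mL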
[24] = test system: INS1; test: INS-1E survival protection against cytokine death – cell-based, luminescence, retest, dose response (AID 449756); format: functional; details: Rattus norvegicus;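 further: cell death triggered by IL-1 beta plus TNF-alpha plus IFN-gamma mixture; protective hits raise ATP signal compared with cytokine alone wells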
[25] = test system: HEK293; test: cells; format: functional, cell-based; details: Homo sapiens; remark: listed apart in the source
[26] = fluconazole-exposed Candida albicans growth modulators – fluorescence, retest, confirmation (AID 2467); format: functional, cell-based
[27] = test system: HEK293; test: NOD2 signaling inhibitors in MDP-stimulated cells, cell-based, uHTS, luminescence (AID 2001); format: functional; details: Homo sapiens
[28] = target: T2, Ubiquitin-conjugating enzyme E2 N (Homo sapiens, UniProt P61088); format: functional;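 further: Dose-response confirmation in a TR-FRET assay detecting UBC13-driven polyubiquitin chain formation, inhibition measured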
T2 sequence (P61088 whole entry): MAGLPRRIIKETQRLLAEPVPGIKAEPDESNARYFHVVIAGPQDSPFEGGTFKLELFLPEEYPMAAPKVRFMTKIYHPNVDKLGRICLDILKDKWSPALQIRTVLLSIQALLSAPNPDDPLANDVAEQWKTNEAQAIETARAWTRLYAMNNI

[29] = test system: Streptococcus; test: GAS UMAA2166 growth inhibition – luminescence, BacTiterGlo, counter-screen for streptokinase expression inhibitor project, dose response (AID 1915); format: functional, organism-based;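 further: potency for reduction of bacterial viability or growth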
[30] = target: Induced myeloid leukemia cell differentiation protein Mcl-1 (Homo sapiens, UniProt Q07820); format: functional
[31] = test system: HEK293; test: inhibition of NOD1-driven NF-kB reporter – cell-based, luminescence, uHTS, primary screen (AID 1578); format: functional; details: Homo sapiens

Cn1c(=O)c(Oc2cc(Cl)cc(Cl)c2)nc2ccccc21
EC50 [1]: 24.5 µM (not active)
EC50 [2]: 28.8 µM (not active)
EC50 [3]: 21.1 µM (not active)

COc1ccc(/C=N/n2c(S)nnc2-c2[nH]nc3c2CCC3)cc1
IC50 [4]: 3.61 µM (active)
IC50 [5]: > 100 µM (inactive)

COc1ccc(/C=C(\C#N)C(=O)OCC(=O)NCc2ccccc2Cl)cc1
IC50 [6]: 42.3 µM (active)

COc1ccc(C(CNC(=O)c2cncc(Br)c2)N(C)C)cc1 (configuration not stated)
EC50 [7]: > 92.5 µM (inactive)
EC50 [8]: 26.9 µM (inactive)
EC50 [9]: 18.5 µM (inactive)

N#Cc1cccc(NC(=O)N2CC3(CCN(C(=O)c4cccc(F)c4)CC3)C2)c1
AC50 [10]: inconclusive

O=c1[nH]c(SCc2n[nH]c(=S)n2-c2ccccc2)nc2ccccc12
IC50 [4]: 3.8 µM (active)
IC50 [5]: > 100 µM (inactive)

Cc1cc(C(=O)N/N=C/c2ccc(-c3ccc(C)c(Cl)c3)o2)[nH]n1
IC50 [6]: 45.5 µM (active)

CN(C)S(=O)(=O)c1cc([N+](=O)[O-])ccc1N1CCCCCC1
EC50 [11]: 10.1 µM (not active)
EC50 [12]: > 29.9 µM (not active)
AC50 [13]: 11.2 µM (inconclusive)

CCc1nnc(NC(=O)COc2ccc(N(C)S(=O)(=O)c3ccc(C)cc3)cc2)s1
EC50 [11]: 3.27 µM (active)
EC50 [12]: > 29.9 µM (not active)

Cn1c(=O)[nH]c(=O)c2c1nc(CN1CCOCC1)n2Cc1ccccc1
AC50 [10]: inconclusive

Cc1ccccc1OCC(=O)Nc1cc(S(=O)(=O)N2CCCCC2)ccc1N1CCN(C)CC1
EC50 [11]: 5.43 µM (active)
EC50 [12]: > 29.9 µM (not active)
EC50 [14]: > 60 µM (not active)
EC50 [15]: 634 nM (active)

Cc1cc(=O)oc2cc(NC(=O)C3COc4ccccc4O3)ccc12 (configuration not stated)
EC50 [7]: > 92.5 µM (inactive)
EC50 [8]: > 92.5 µM (inactive)
EC50 [9]: > 92.5 µM (inactive)

Nc1nc(N)c2cc(Sc3ccc4ccccc4c3)ccc2n1
EC50 [16]: 148 nM (active)
IC50 [17]: > 20 µM (inactive)
EC50 [18]: 2.06 µM (active)
EC50 [19]: 2.96 µM (active)
EC50 [20]: > 150 µM (inconclusive)
EC50 [21]: 9.21 µM (active)
CC50 [22]: 800 nM (active)
EC50 [23]: 5.4 µM (inconclusive)
AC50 [24]: 7.99 µM (active)
IC50 [25]: 11.5 µM (active)
EC50 [26]: 1.38 µM (active)
IC50 [27]: 5.21 µM (active)
IC50 [28]: > 20 µM (inactive)
EC50 [29]: 2.83 µM (active)
IC50 [30]: 3.67 µM (active)
EC50 [31]: > 20 µM (inactive)
